Laboratory results as given in patent US9102670B2, “Pyrido-, pyrazo- and pyrimido-pyrimidine derivatives as mTOR inhibitors” (KuDOS Pharmaceuticals Limited, priority 2006, dated 2015).
Like-named read-outs stand apart in the source and are kept apart here.

System: phosphorylation of Serine 473 in Akt
Experiment: In Vitro Phospho-Ser473 Akt Assay in MDA-MB-468 cells
Assay type: cell-based
Settings: Homo sapiens
[1] = MDA-MB-468, read-out: IC50 values against mTOR, phospho-Ser473 Akt assay, MDA-MB-468 cells, upper bound
[2] = MDA-MB-468, read-out: IC50 values against mTOR, phospho-Ser473 Akt assay, MDA-MB-468 cells

In the case of `C[C@H]1COCCN1c1nc(-c2cccnc2F)nc2nc(-c3cccc(CO)c3)ccc12` [Example 19u], the IC50 [1] is reported as < 1000 nM.
For `COCC(=O)NCc1cc(-c2ccc3c(N4CCOC[C@@H]4C)nc(N4CCOC[C@@H]4C)nc3n2)ccc1F` [Example 5u], the IC50 [1] was < 1000 nM.
`C[C@H]1COCCN1c1nc(N2CCOC[C@@H]2C)c2ccc(-c3ccc(C(N)=O)cc3)nc2n1` [Example 1ao] was tested, and the IC50 [2] was < 300 nM.
For `COc1ccc(-c2ccc3c(N4CCOC[C@@H]4C)nc(NC4CCCC4)nc3n2)cc1CO` [Example 18aw], the IC50 [2] was < 100 nM.
With `C[C@H]1COCCN1c1nc(-c2ccncc2)nc2nc(-c3cccc(CO)c3)ccc12` [Example 19q] the IC50 [1] was < 1000 nM.
`C[C@H]1COCCN1c1nc(N2CCOC[C@@H]2C)c2ccc(-c3ccc(S(C)(=O)=O)cc3)nc2n1` [Example 1am] was tested, and the IC50 [2] was < 300 nM.
In the case of `COc1ccc(-c2ccc3c(N4CCOC[C@@H]4C)nc(N4CCOC[C@@H]4C)nc3n2)cc1CNC(C)C` [Example 4am], the IC50 [2] is reported as < 100 nM.
`COc1ccc(-c2ccc3c(N4CCOC[C@@H]4C)nc(N4CCC(O)(c5ccccc5)CC4)nc3n2)cc1CO` [Example 18am] was tested, and the IC50 [2] was < 100 nM.
`COCc1cccc(-c2ccc3c(N4CCOC[C@@H]4C)nc(N4CCOC[C@@H]4C)nc3n2)c1` [Example 1bb] was tested, and the IC50 [2] was < 100 nM.
`COCC(C)Nc1nc(N2CCOC[C@@H]2C)c2ccc(-c3ccc(OC)c(CO)c3)nc2n1` (some centres unmarked) [Example 18ax] was tested, and the IC50 [2] was < 100 nM.
`COc1ccc(-c2ccc3c(N4CCOC[C@@H]4C)nc(N4CCNC(=O)C4C)nc3n2)cc1CO` (some centres unmarked) [Example 18co] was tested, and the IC50 [2] was < 100 nM.
With `CCNCc1ccc(-c2ccc3c(N4CCOC[C@@H]4C)nc(N4CCOC[C@@H]4C)nc3n2)o1` [Example 7d] the IC50 [2] was < 100 nM.
`COc1ccc(-c2ccc3c(N4CCOC[C@@H]4C)nc(NC(C)(C)CO)nc3n2)cc1CO` [Example 18cc] was tested, and the IC50 [2] was < 100 nM.
In the case of `C[C@@H]1CN(c2nc(N3CCOC[C@@H]3C)c3ccc(-c4ccsc4)nc3n2)C[C@H](C)O1` [Example 1k], the IC50 [2] is reported as < 100 nM.
In the case of `COc1ccc(-c2ccc3c(N4CCOC[C@@H]4C)nc(N4CCOC[C@@H]4C)nc3n2)cc1CNC(C)CC(C)C` (some centres unmarked) [Example 4au], the IC50 [2] is reported as < 100 nM.
`CC(C)CC(=O)NCc1cc(-c2ccc3c(N4CCOC[C@@H]4C)nc(N4CCOC[C@@H]4C)nc3n2)ccc1F` [Example 5y] was tested, and the IC50 [1] was < 1000 nM.
For `COCCN(C)Cc1cc(-c2ccc3c(N4CCOC[C@@H]4C)nc(N4CCOC[C@@H]4C)nc3n2)ccc1F` [Example 4aj], the IC50 [1] was < 1000 nM.
With `COc1ccc(-c2ccc3c(N4CCOC[C@@H]4C)nc(N4CCCC4)nc3n2)cc1CO` [Example 18q] the IC50 [2] was < 100 nM.
`C[C@H]1COCCN1c1nc(N2CCOC[C@@H]2C)c2ccc(-c3cccc(CN4CC[C@@H](O)C4)c3)nc2n1` [Example 4r] was tested, and the IC50 [2] was < 100 nM.
With `C[C@H]1COCCN1c1nc(N2CCCC(CO)C2)nc2nc(-c3cccc(C(N)=O)c3)ccc12` (some centres unmarked) [Example 2d] the IC50 [1] was < 1000 nM.
`C[C@H]1COCCN1c1nc(N2CCOC[C@@H]2C)c2ccc(-c3ccc(F)c(C(N)=O)c3)nc2n1` [Example 1ab] was tested, and the IC50 [2] was < 300 nM.
`C[C@@H]1CN(c2nc(N3CCOC[C@@H]3C)c3ccc(-c4cccc(O)c4)nc3n2)C[C@H](C)O1` [Example 1bz] was tested, and the IC50 [2] was < 100 nM.
For `C[C@H]1COCCN1c1nc(N2CCOC[C@@H]2C)c2ccc(-c3cccc(CO)c3)nc2n1` [Example 1i], the IC50 [2] was < 100 nM.
With `C[C@@H]1CN(c2nc(N3CCOC[C@@H]3C)c3ccc(-c4ccc([N+](=O)[O-])cc4)nc3n2)C[C@H](C)O1` [Example 1ci] the IC50 [2] was < 300 nM.
With `COc1ccc(-c2ccc3c(N4CCOC[C@@H]4C)nc(N4CCOC[C@@H]4C)nc3n2)cc1CNCC(C)C` [Example 4az] the IC50 [2] was < 100 nM.
In the case of `C[C@H]1COCCN1c1nc(N2CCOC[C@@H]2C)c2ccc(-c3ccc(CN4CC[C@H](O)C4)cc3)nc2n1` [Example 4d], the IC50 [2] is reported as < 100 nM.
For `C[C@H]1COCCN1c1nc(N2CCOC[C@@H]2C)c2ccc(-c3cccc(NS(C)(=O)=O)c3)nc2n1` [Example 1at], the IC50 [2] was < 100 nM.
With `COc1ccc(-c2ccc3c(N4CCOC[C@@H]4C)nc(-c4cccc(CO)c4)nc3n2)cc1CO` [Example 19c] the IC50 [2] was < 300 nM.
`COc1ccc(-c2ccc3c(N4CCOC[C@@H]4C)nc(N4CCOC[C@@H]4C)nc3n2)cc1CNC1CCC(C)CC1` (some centres unmarked) [Example 4bc] was tested, and the IC50 [2] was < 100 nM.
